The text below walks through data of article PMC12799219, “In vitro and in vivo studies on the activity and selectivity of butoconazole in experimental infection by Trypanosoma cruzi” (Memórias do Instituto Oswaldo Cruz, 2026).

Structures are written as SMILES. Read-outs that look alike come from different tables or passages of the source.

As usually defined, the CC50 is the concentration at which the toxic effect on the cells reaches its halfway point. For orientation: EC90 means the concentration at which the effect reaches the 90% level.

Series [1] is described as follows: Cytotoxicity assay on L929 fibroblasts (AlamarBlue). The conditions noted are these: mouse. It is filed as cell-based. The protocol:
Mammalian cell cultures - L929 fibroblast lineage were cultured in Roswell Park Memorial Institute 1640 medium without phenol red (RPMI - Sigma-Aldrich, St. Louis, MO, USA), supplemented with 10% foetal bovine serum (FBS - Cultilab - SP - Brazil) and 2 mM glutamine (Sigma-Aldrich, St. Louis, MO, USA) with pH 7.2 - 7.4, as previously reported.[21] H9C2, cardiomyoblast cultures, were maintained in Dulbecco’s Modified Eagle’s Medium (DMEM) high glucose (4500 mg/L) medium supplemented (Sigma-Aldrich, St. Louis, MO, USA) with 10% FBS (Cultilab - SP -Brazil), 2 mM glutamine (Sigma-Aldrich, St. Louis, MO, USA) and 100 μg/mL penicillin/streptomycin (Sigma-Aldrich, St. Louis, MO, USA).[22] Both cell cultures maintained at 37 °C under an atmosphere of 5% CO2, with weekly dissociation protocol using 0.01% trypsin.
Cytotoxicity assay - The toxicity of the compounds was evaluated on two mammalian cell lines (L929 and H9C2), as reported.[21] The cells were seeded in 96-well plates (4 x 10^3 cells/well - for L929; 25x10^3 cells/well - for H9C2) and incubated at 37 °C and 5% CO2. The L929 cultures were kept under treatment for 96 and 168 h with a serial dilution (1:2) of the compounds (up to 400 μM). After the treatment periods, the AlamarBlue® reagent (Thermo Fisher Scientific Inc) was added and incubated for 24 h. The H9C2 cultures were also treated in serial dilution up to 200 μM for 24 h. PrestoBlue® reagent (Thermo Fisher Scientific Inc) was added to the cultures and incubated for 3 h. All plates were analysed in the spectrophotometer SpectraMaxM3 (570 and 600 nm) and LC50 values (concentration capable of inducing loss of viability in 50% of the cells) determined.[21] All assays were done at least twice, in triplicates.
(In general: Alamar Blue is a resazurin reagent that responds to reducing activity.)

For series [2], the system named is T. cruzi (Y strain) blood trypomastigotes. As to the kind of experiment: In vitro activity on bloodstream trypomastigotes. Conditions: for EC90 / EC50: Trypanosoma cruzi. It is filed as cell-based, Trypanosoma cruzi. The protocol: In vitro activity on bloodstream trypomastigotes - Swiss male mice were inoculated with 5 x 10^4 bloodstream trypomastigotes (BT, Y strain, DTU II) and at the parasitaemia peak [8th post-infection (dpi)], euthanised using 3% isoflurane and blood samples obtained by cardiac puncture (CEUA FIOCRUZ L038-2017). Then, 100 μL of parasite suspension (10^7/mL in RPMI medium + 5% FBS) was added to the same volume of RPMI + 5% FBS containing treatment with BTZ (serially diluted - 1:2) at twice the desired final concentration. After 2 and 24 h at 37 °C, the number of live parasites was determined by light microscopy quantification using a Neubauer chamber.[6] Untreated controls were carried out with parasites kept under the same conditions and BZ was run in parallel. The activity of the compounds was expressed by the EC50 and EC90 values. The assays were done at least twice, in duplicate.

In series [3] the test system is T. cruzi intracellular forms (Tulahuen strain) in L929 cell lines. The series can be described thus: Drug combination (fixed-ratio, FICI) on intracellular forms of T. cruzi. Also noted: Drug concentration (EC50 in fixed-ratio series): unit not given here. Format: cell-based, Trypanosoma cruzi. The protocol: Drug combination on intracellular forms of T. cruzi - L929 were seeded in 96-well plates (4 x 10^3 cells/well) and infected with T. cruzi (Tulahuen strain). Predetermined EC50 values were used to determine the top concentrations of the test compounds under fixed ratios ensuring that EC50 fell in the midpoint of a seven-point two-fold dilution series. The fixed ratios were 5:0, 4:1, 3:2, 2:3, 1:4 and 0:5.[24] ^, [25] According to Odds (2003), the Fractional Inhibitory Concentration Indexes (FICI) was calculated by the ratio of the EC50 values of each ratio of the combinations/EC50 of each compound alone. Finally, the sum of the FICIs (ƩFICI) is calculated to classify the interaction nature of the combinations.[26] ΣFICI ≤ 0.5 = Synergism; ΣFICI between 0.5 and 4 = additive (No interaction); ΣFICI > 4 = antagonism. At least two independent experiments were performed in triplicate.

In another series the test system is T. cruzi satDNA. As to the kind of experiment: In vivo efficacy by qPCR (T. cruzi satDNA) in blood and heart. Also noted: species or system Swiss male mice. The conditions noted are these: for qPCR on blood samples, parasite DNA amplification: first trial, surviving mice: BZ 25 mg/kg/day, BTZ 45.61 mg/kg/day; for qPCR on blood samples, animals that amplified parasite DNA: second trial, higher doses: BZ 100, BTZ 182.44 mg/kg/day. The protocol:
In vivo efficacy assessments by qPCR evaluations - At the end point, the animals were weighed; euthanised and submitted to cardiac puncture. 500 μL of fresh blood was collected and added to 1 mL of guanidine. The DNA was extracted from 300 μL of guanidine-EDTA blood, using the kit High Pure PCR Template Preparation (Roche diagnostics, Mannhein, Germany), according to the manufacturer's instructions. At the last step of the protocol, DNA was eluted in 100 μL of elution buffer. Also, cardiac tissues were collected, weighed and fragmented using a scalpel, 200 μL of Tissue Lysis Buffer was added and samples immediately placed in Styrofoam with dry ice. Blood and heart tissues were stored in the freezer at […] until analysis by qPCR. Heart tissues were homogenised using a Tissue Homogeneizer (Qiagen). DNA was extracted using the kit High Pure PCR Template Preparation (Roche diagnostics, Mannhein, Germany), according to the manufacturer's instructions for tissue samples. qPCR was done using a TaqMan multiplex assay, targeting T. cruzi […] and mouse GAPDH, as an endogenous control, and to normalise the parasite load. To obtain standard curves, serial dilutions of the DNA were prepared in appropriate plates for the assay. After normalising the results obtained on the samples, the parasite load was expressed as parasite equivalents/mL when evaluated in blood, or parasite equivalents/mg when in mouse tissue. In all trials, positive and negative controls were also tested in parallel.
Background: Real-time PCR tracks product formation cycle by cycle.

The mark [4] stands for this setting: 2 h, read-out: Activity on T. cruzi (Y strain) blood trypomastigotes EC50.
Where [5] appears, read: 24 h, read-out: Activity on T. cruzi (Y strain) blood trypomastigotes EC50.
Where [6] appears, read: 24 h, read-out: Activity on T. cruzi (Y strain) blood trypomastigotes pEC50 (converted).

Consider `O=C(Cn1ccnc1[N+](=O)[O-])NCc1ccccc1` [BZ, benznidazole], for which the CC50 at 96 h in series [1] is above 400 µM. In series [1], this compound registered a CC50 at 168 h above 200 µM. The EC50 at 168 h in series [1] (L929 fibroblast cells, printed in the 168 h column, read-out: Cytotoxicity on L929 cells pEC50 (converted)) is above 200 µM. Besides, the EC90 in series [2] (2 h) was above 20 µM; in series [2] (24 h), 17.5 ± 0.65 µM. The EC50 in series [2] (setting [4]) is above 20 µM; in series [2] (setting [5]), 5.93 ± 0.15 µM; in series [2] (setting [6]), 6.03 µM. The “Drug concentration (EC50 in fixed-ratio series)” value in series [3] (proportion BTZ:BZ 0:5) amounted to 1.445; in series [3] (proportion BTZ:BZ 1:4) it was 0.138; in series [3] (proportion BTZ:BZ 2:3), 0.219; in series [3] (proportion BTZ:BZ 3:2), 0.402; in series [3] (proportion BTZ:BZ 4:1), 0.738. In addition, the FICI is recorded as 1 in series [3] (proportion BTZ:BZ 0:5); 0.10 in series [3] (proportion BTZ:BZ 1:4); 0.15 in series [3] (proportion BTZ:BZ 2:3); 0.28 in series [3] (proportion BTZ:BZ 3:2); 0.51 in series [3] (proportion BTZ:BZ 4:1); 0 in series [3] (proportion BTZ:BZ 5:0). In addition, the “negative qPCR in cardiac samples” value with T. cruzi satDNA (BZ 100 mg/kg/day) stood at 100%. Further, in the series on T. cruzi satDNA, the “qPCR on blood samples, parasite DNA amplification” value is recorded as “parasite DNA was amplified in all animals”. The “qPCR on blood samples, animals that amplified parasite DNA” value with T. cruzi satDNA is listed as “only one animal”.
As for `Clc1ccc(CCC(Cn2ccnc2)Sc2c(Cl)cccc2Cl)cc1` (stereo not drawn) [BTZ, butoconazole], the CC50 at 96 h in series [1] stood at 23.9 ± 1.1 µM. Moreover, in series [1], the CC50 at 168 h turned out to be 17.5 ± 3.24 µM. Besides, the EC50 at 168 h in series [1] is 24 µM. The “fold less potent than BZ on bloodstream trypomastigotes” value in series [2] (24 h, EC50 versus BZ) is listed as 2.3 fold. The 90% effect concentration (EC90) was above 20 µM in series [2] (2 h) and 18.64 ± 0.11 µM in series [2] (24 h). Besides, the EC50 in series [2] (setting [4]) was above 20 µM; in series [2] (setting [5]) it was 13.8 ± 0.7 µM; in series [2] (setting [6]) it was 14.1 µM. Besides, the FICI in series [3] (proportion BTZ:BZ 0:5) worked out at 0; in series [3] (proportion BTZ:BZ 1:4) it was 0.26; in series [3] (proportion BTZ:BZ 2:3), 0.37; in series [3] (proportion BTZ:BZ 3:2) it was 0.20; in series [3] (proportion BTZ:BZ 4:1), 0.76; in series [3] (proportion BTZ:BZ 5:0) it was 1. The “Drug concentration (EC50 in fixed-ratio series)” value is 0.008 in series [3] (proportion BTZ:BZ 1:4); 0.012 in series [3] (proportion BTZ:BZ 2:3); 0.006 in series [3] (proportion BTZ:BZ 3:2); 0.024 in series [3] (proportion BTZ:BZ 4:1); 0.031 in series [3] (proportion BTZ:BZ 5:0). Also, the “mice with negative qPCR in cardiac samples” value with T. cruzi satDNA (BTZ 184 mg/kg/day as printed) is “two of five”. Further, the “qPCR on blood samples, parasite DNA amplification” value in the series on T. cruzi satDNA is “negative (three of three animals)”. Further, the “qPCR on blood samples, animals that amplified parasite DNA” value in the series with T. cruzi satDNA is recorded as “only one animal”.
